In patent US10421778B2, “Isoform-selective lysine deacetylase inhibitors” (WASHINGTON UNIVERSITY, priority 2015, dated 2019):
Marks after values point to notes of the source that are not given here. Positions of bridges follow the written chain, without caps; N, C: chain ends. Non-standard residues stand in square brackets, D forms with d. Residues, ends and D or L forms follow the SMILES beside them. *: point of attachment. GABA = NCCCC(=O)O; NHOH = ON*

Tests used:
Assay in all cases: KDAC inhibition assay, Caliper EZ Reader II
Assay type in all cases: biochemical
recombinant human KDAC3 = target: T1, recombinant human KDAC3 (Homo sapiens, UniProt O15379); conditions: for KDAC Inhibition Activity KDAC3 (% inhibition): % inhibition at 30 μM
T1 construct: purchased BPS Bioscience

recombinant human KDAC8 = target: T2, recombinant human KDAC8 (Homo sapiens, UniProt Q9BY41); conditions: for KDAC Inhibition Activity KDAC8 (% inhibition): % inhibition at 30 μM
T2 construct: purchased BPS Bioscience
T2 sequence (Q9BY41 1-377): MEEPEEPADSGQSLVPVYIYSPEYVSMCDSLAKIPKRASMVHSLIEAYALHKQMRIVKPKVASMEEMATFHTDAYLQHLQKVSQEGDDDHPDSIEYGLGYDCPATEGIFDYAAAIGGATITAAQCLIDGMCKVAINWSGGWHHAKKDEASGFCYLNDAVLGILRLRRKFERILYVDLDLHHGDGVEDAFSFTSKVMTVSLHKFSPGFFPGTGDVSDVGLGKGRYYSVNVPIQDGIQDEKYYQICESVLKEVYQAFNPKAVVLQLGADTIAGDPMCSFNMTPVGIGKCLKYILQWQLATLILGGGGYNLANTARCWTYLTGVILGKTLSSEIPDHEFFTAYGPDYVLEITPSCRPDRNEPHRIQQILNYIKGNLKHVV

recombinant human KDAC1 = target: T3, recombinant human KDAC1 (Homo sapiens, UniProt Q13547); conditions: for KDAC Inhibition Activity KDAC1 (% inhibition): % inhibition at 30 μM
T3 construct: purchased BPS Bioscience

recombinant human KDAC6 = target: T4, recombinant human KDAC6 (Homo sapiens, UniProt Q9UBN7); conditions: for KDAC Inhibition Activity KDAC6 (% inhibition): % inhibition at 30 μM
T4 construct: purchased BPS Bioscience
T4 sequence (Q9UBN7 1-1215): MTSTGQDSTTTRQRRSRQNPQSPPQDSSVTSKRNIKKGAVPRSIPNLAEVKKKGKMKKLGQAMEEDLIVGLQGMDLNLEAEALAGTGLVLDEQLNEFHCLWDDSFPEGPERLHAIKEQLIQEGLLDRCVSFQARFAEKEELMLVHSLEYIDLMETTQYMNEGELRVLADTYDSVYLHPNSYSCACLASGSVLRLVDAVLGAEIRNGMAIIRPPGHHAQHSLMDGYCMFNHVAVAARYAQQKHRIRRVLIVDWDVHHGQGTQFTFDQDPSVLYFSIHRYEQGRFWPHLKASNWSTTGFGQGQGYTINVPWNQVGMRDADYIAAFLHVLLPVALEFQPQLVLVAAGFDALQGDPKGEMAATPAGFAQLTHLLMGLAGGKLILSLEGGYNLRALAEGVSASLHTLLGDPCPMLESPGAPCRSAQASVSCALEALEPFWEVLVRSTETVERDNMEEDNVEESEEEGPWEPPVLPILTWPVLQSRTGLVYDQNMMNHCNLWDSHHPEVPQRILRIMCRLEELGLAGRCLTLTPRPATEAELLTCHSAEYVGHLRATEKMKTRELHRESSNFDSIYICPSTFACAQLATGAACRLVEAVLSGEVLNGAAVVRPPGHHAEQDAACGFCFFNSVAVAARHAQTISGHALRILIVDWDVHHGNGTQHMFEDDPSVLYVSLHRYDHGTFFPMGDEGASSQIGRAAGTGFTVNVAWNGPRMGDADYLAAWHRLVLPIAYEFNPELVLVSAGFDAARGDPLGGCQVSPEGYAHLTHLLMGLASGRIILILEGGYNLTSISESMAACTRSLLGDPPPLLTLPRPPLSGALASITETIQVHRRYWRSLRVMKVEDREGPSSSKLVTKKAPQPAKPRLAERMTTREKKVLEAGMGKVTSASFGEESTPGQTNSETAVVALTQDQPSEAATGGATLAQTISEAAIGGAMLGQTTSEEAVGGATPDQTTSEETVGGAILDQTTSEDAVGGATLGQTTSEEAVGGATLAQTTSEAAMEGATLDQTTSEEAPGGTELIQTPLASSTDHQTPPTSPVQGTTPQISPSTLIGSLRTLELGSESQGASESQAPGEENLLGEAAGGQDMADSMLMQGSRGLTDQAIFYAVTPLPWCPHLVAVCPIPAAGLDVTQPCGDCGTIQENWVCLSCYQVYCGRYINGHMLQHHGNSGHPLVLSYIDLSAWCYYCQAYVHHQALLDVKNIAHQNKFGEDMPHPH

T1 sequence (O15379 whole entry): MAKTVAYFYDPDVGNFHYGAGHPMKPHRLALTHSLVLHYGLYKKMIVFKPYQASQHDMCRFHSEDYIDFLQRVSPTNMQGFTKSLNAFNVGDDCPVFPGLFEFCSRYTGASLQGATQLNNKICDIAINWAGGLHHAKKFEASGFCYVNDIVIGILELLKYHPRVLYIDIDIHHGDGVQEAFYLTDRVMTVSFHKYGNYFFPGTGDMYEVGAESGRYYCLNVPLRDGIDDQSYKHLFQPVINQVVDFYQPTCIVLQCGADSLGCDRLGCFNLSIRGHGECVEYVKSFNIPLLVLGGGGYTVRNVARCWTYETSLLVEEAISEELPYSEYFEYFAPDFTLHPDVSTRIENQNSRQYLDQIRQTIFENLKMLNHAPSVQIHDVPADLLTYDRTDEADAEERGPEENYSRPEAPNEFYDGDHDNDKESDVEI
T1 sequence (Q9Y618 395-489 partner limits assumed): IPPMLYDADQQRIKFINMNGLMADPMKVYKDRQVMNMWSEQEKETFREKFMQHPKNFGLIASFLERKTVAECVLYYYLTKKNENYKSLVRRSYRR
T3 sequence (Q13547 whole entry): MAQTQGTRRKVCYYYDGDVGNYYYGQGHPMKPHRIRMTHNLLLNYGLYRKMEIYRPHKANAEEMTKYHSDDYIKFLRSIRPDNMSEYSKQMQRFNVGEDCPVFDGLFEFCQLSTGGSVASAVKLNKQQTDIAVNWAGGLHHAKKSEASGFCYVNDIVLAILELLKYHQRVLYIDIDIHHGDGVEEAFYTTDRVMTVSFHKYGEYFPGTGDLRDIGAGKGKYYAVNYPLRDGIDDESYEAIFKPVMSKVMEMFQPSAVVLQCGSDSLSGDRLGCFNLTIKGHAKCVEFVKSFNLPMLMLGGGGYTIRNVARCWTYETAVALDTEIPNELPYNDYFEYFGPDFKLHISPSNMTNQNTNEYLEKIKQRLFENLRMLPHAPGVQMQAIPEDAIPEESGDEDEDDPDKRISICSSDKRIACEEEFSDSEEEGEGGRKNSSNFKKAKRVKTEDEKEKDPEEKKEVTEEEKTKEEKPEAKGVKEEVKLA

KDAC Inhibition Activity KDAC3 (% inhibition) (recombinant human KDAC3)	KDAC Inhibition Activity KDAC8 (% inhibition) (recombinant human KDAC8)	KDAC Inhibition Activity KDAC1 (% inhibition) (recombinant human KDAC1)	KDAC Inhibition Activity KDAC6 (% inhibition) (recombinant human KDAC6)	Molecule	inhibition at 30 µM (recombinant human KDAC3)	IC50 (recombinant human KDAC3; 10-point dose curve from 30 μM, read-out: KDAC Inhibition Activity (IC50) KDAC3)	inhibition at 30 µM (recombinant human KDAC8)	IC50 (recombinant human KDAC8; 10-point dose curve from 30 μM)	inhibition at 30 µM (recombinant human KDAC1)	IC50 (recombinant human KDAC1; 10-point dose curve from 30 μM)	inhibition at 30 µM (recombinant human KDAC6)
Not active	23%	Not active	Not active	Cyclo-Asp(Pro-^DPro-Val)-NHCH2CH2CH2S(═O)2CH3 [Compound 21a]	–	–	–	–	–	–	–
27%	21%	12.5%	53%	Cyclo-^DAsp(^DPro-Pro-Val)-NHCH2CH2CH2CONHOH [Compound 14b]	–	–	–	–	–	–	–
15%	Not active	9.5%	48%	Cyclo-^DAsp(Pro-^DPro-Val)-NHCH2CH2CH2SH [Compound 18b]	–	–	–	–	–	–	–
4%	17%	Not active	Not active	Cyclo-Asp(^DPro-Pro-Val)-NHCH2CH2CH2S(═O)2CH3 [Compound 9a]	–	–	–	–	–	–	–
1%	4%	Not active	19%	Cyclo-Asp(Pro-^DPro-Val)-NHCH2CH2CH2SH [Compound 18a]	–	–	–	–	–	–	–
7%	Not active	5%	7%	Cyclo-^DAsp(^DPro-Pro-Val)-NHCH2CH2S—SCH2CH2NH2 [Compound 15b]	–	–	–	–	–	–	–
17-31% 24% average	6%	8%	15-36% 26% average	Cyclo-Asp(^DPro-Pro-Val)-NHCH2CH2CH2SH [Compound 6a]	–	–	–	–	–	–	–
Not active	8%	Not active	12%	Cyclo-^DAsp(Pro-^DPro-Val)-NHCH2CH2CH2S(═O)2CH3 [Compound 21b]	–	–	–	–	–	–	–
Not active	6%	Not active	23%	Cyclo-^DAsp(^DPro-Pro-Val)-NHCH2CH2SH [Compound 5b]	–	–	–	–	–	–	–
Not active	Not active	Not active	18%	Cyclo-^DAsp(Pro-^DPro-Val)-NHCH2CH2SH [Compound 17b]	–	–	–	–	–	–	–
7%	Not active	Not active	Not active	Cyclo-Asp(Pro-^DPro-Val)-NHCH2CH2CH2OH [Compound 22a]	–	–	–	–	–	–	–
Not active	1%	Not active	Not active	Cyclo-Asp(^DPro-Pro-Val)-NHCH2CH2S—SCH2CH2NH2 [Compound 15a]	–	–	–	–	–	–	–
9%	8%	Not active	Not active	Cyclo-^DAsp(^DPro-Pro-Val)-NHCH2CH2CH2SH [Compound 6b]	–	–	–	–	–	–	–
10%	31%	2.5%	Not active	Cyclo-Asp(^DPro-Pro-Val)-NHCH2CH2S—SCH2CH2NHP(O)(OPh) [Compound 11a]	–	–	–	–	–	–	–
1%	26%	Not active	1%	Cyclo-Asp(^DPro-Pro-Val)-NHCH2CH2CH2OH [Compound 10a]	–	–	–	–	–	–	–
–	–	–	–	CC(C)[C@@H]1NC(=O)[C@H]2CCCN2C(=O)[C@@H]2CCCN2C(=O)C[C@@H](C(=O)NCCCC(=O)NO)NC1=O [Compound 25a, Cyclo-Asp(Pro-^DPro-Val)-NHCH2CH2CH2CONHOH] (P[dP]VD[GABA]-{NHOH}; lactam N-4)	45%	> 30 µM	34%	> 30 µM	25%	> 30 µM	80%
10%	9%	7%	8%	Cyclo-^DAsp(^DPro-Pro-Val)-OBn [Compound 1b]	–	–	–	–	–	–	–
4%	10%	Not active	16%	Cyclo-^DAsp(^DPro-Pro-Val)-NHCH2CH2S—SCH2CH2NHP(O)(OPh) [Compound 11b]	–	–	–	–	–	–	–
8%	36%	4%	Not active	Cyclo-Asp(Pro-^DPro-Val)-NHCH2CH2CH2COOH [Compound 24a]	–	–	–	–	–	–	–
Not active	4%	Not active	13%	Cyclo-^DAsp(Pro-^DPro-Val)-NHCH2CH2S—SCH2CH2NH2 [Compound 26b]	–	–	–	–	–	–	–

Molecule	KDAC Inhibition Activity KDAC3 (% inhibition) (recombinant human KDAC3)	KDAC Inhibition Activity KDAC8 (% inhibition) (recombinant human KDAC8)	KDAC Inhibition Activity KDAC1 (% inhibition) (recombinant human KDAC1)	KDAC Inhibition Activity KDAC6 (% inhibition) (recombinant human KDAC6)	inhibition at 30 µM (recombinant human KDAC3)	IC50 (recombinant human KDAC3; 10-point dose curve from 30 μM, read-out: KDAC Inhibition Activity (IC50) KDAC3)	inhibition at 30 µM (recombinant human KDAC8)	IC50 (recombinant human KDAC8; 10-point dose curve from 30 μM)	inhibition at 30 µM (recombinant human KDAC1)	IC50 (recombinant human KDAC1; 10-point dose curve from 30 μM)	inhibition at 30 µM (recombinant human KDAC6)
Cyclo-Asp(^DPro-Pro-Val)-NHCH2CH2CH2NH2 [Compound 16a]	14%^a	22%^a	Not active	2%^a	–	–	–	–	–	–	–
Cyclo-^DAsp(^DPro-Pro-Val)-NHCH2CH2CH2COOMe [Compound 12b]	Not active	Not active	5%	Not active	–	–	–	–	–	–	–
Cyclo-^DAsp(Pro-^DPro-Val)-NHCH2CH2CH2COOMe [Compound 23b]	Not active	7%	1%	5%	–	–	–	–	–	–	–
Cyclo-Asp(Pro-^DPro-Val)-NHCH2CH2CH2SCH3 [Compound 19a]	Not active	25%	2%	Not active	–	–	–	–	–	–	–
Cyclo-Asp(^DPro-Pro-Val)-NHCH2CH2CH2COOMe [Compound 12a]	2%	Not active	54.6%	Not active	–	–	–	–	–	–	–
Cyclo-^DAsp(Pro-^DPro-Val)-NHCH2CH2CH2S(═O)CH3 [Compound 20b]	16%	10%	1%	1%	–	–	–	–	–	–	–
